# In PubChem BioAssay (NCI):
# “And” between values parts separate entries of the source, which are not always exact repeats. Equal values may be shown once.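 Cultured in 96-well plates, cells were exposed to test compound for 48 hours across five concentrations. GI50 marks 50% less growth. Definition used: TGI = concentration required for complete inhibition of growth.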
# How the values were obtained:
# Assay in all cases: NCI-60 cell line screen, 48 h
# HCT-15 colon = system: HCT-15 colon
# NCI-H460 lung = system: NCI-H460 lung
# KM12 colon = system: KM12 colon
# RPMI-8226 leukemia = system: RPMI-8226 leukemia
# OVCAR-3 ovarian = system: OVCAR-3 ovarian
# HOP-62 NSCLC = system: HOP-62 NSCLC
# HOP-92 NSCLC = system: HOP-92 NSCLC
# TK-10 renal = system: TK-10 renal
# SNB-75 CNS = system: SNB-75 CNS
# SF-295 CNS = system: SF-295 CNS
Structure (SMILES),GI50 (HCT-15 colon),TGI (HCT-15 colon) [µM],GI50 (NCI-H460 lung),TGI (NCI-H460 lung),GI50 (KM12 colon) [µM],TGI (KM12 colon) [µM],GI50 (RPMI-8226 leukemia) [µM],TGI (RPMI-8226 leukemia) [µM],GI50 (OVCAR-3 ovarian),TGI (OVCAR-3 ovarian),GI50 (HOP-62 NSCLC),TGI (HOP-62 NSCLC),GI50 (HOP-92 NSCLC) [µM],TGI (HOP-92 NSCLC),GI50 (TK-10 renal) [µM],TGI (TK-10 renal),GI50 (SNB-75 CNS) [µM],TGI (SNB-75 CNS) [µM],GI50 (SF-295 CNS),TGI (SF-295 CNS) [µM]
CC[C@@]1(O)C(=O)OCc2c1cc1n(c2=O)Cc2cc3c(N)c(OC)ccc3nc2-1,0.283 µM,3.52,0.013 µM,0.111 µM,0.292,2.24,0.135,2.32,0.328 µM,1.65 µM,< 0.01 µM,0.037 µM,0.185,1.85 µM,2.26,> 50 µM,0.0339,0.265,0.0267 µM,0.41
C(#Cc1ccccc1C#Cc1cnccn1)c1cnccn1,17.5 µM,56,18.3 µM,> 71.9 µM,26.1,68.3,21.2,> 63.4,21.5 µM,> 63.1 µM,26.3 µM,85.8 µM,79.5,> 100 µM,27.2,> 78.2 µM,29.2,> 100,30.3 µM,> 74
Cc1nc2ccccc2c(/C=C/c2ccc(F)cc2)c1C(=O)/C=C/c1ccccc1,1.92 µM,6.2,1.79 µM,3.71 µM,2.38,6.82,1.87,5.95,1.57 µM,3.12 µM,1.91 µM,4.27 µM,2.02,31.5 µM,4.05,> 100 µM,8.15,> 100,4.72 µM,> 100
COc1cccc(/C=C2\COc3ccc(O)c(O)c3C2=O)c1OC,1.6 µM,10.5,2.34 µM,7.12 µM,1.67,3.92,0.547,8.7,1.16 µM,2.85 µM,8.79 µM,22.8 µM,2.69,8.81 µM,2.36,8.19 µM,3.61,20.9,6.07 µM,19.1
Cc1ccc(C)c(NC(=O)C(=O)C(C2C(C)CC(=O)C2CC(=O)O)[N+](=O)[O-])c1 (stereo unspecified),,> 100,,> 100 µM,,> 100,,> 100,,> 100 µM,,> 100 µM,,> 100 µM,,> 100 µM,,> 100,,> 100
O=C(NCCc1nccs1)c1cnc2c(S)cccc2c1,3.49 µM,88.6,0.685 µM,11.4 µM,2.88,17.8,4.15,> 100,2.47 µM,9.21 µM,4.13 µM,20.9 µM,19.8,40.8 µM,5.8,19.5 µM,2.78,17.6,2.8 µM,17.1
COc1cccc(C2=C(c3cn(C)c4c(C)cccc34)C(=O)NC2=O)c1,14.2 µM,> 25,> 25 µM,> 25 µM,> 21,> 25,> 25,> 25,16.5 µM,> 25 µM,> 25 µM,> 25 µM,> 25,> 25 µM,> 25,> 25 µM,0.909,> 25,17.4 µM,> 25
CCc1n(Cc2ccc3ccccc3c2)cc[n+]1Cc1ccc2ccccc2c1,3.94 µM,15.3,0.724 µM,2.15 µM,0.549,1.89,0.376,1.8,0.466 µM,1.74 µM,1.42 µM,3.65 µM,0.338,1.77 µM,1.65,3.32 µM,0.335,1.71,1.43 µM,4
CCCCCCCCCCCCNCCCc1ccccc1,1.71 µM,3.33,1.83 µM,3.4 µM,1.75,3.13,2.09,4.41,1.79 µM,3.18 µM,2.07 µM,3.7 µM,1.34,2.83 µM,1.63,2.98 µM,1.43,2.89,1.93 µM,3.62
CCOC(=O)C(c1ccsc1)P(=O)(OCC)OCC (stereo unspecified),,37.4,,66.4 µM,,28.4,,> 100,,26.9 µM,,52 µM,,46.4 µM,,41 µM,,43.5,,34
CC(C)CC1CC2C(=O)N(c3ccccc3)C(=O)C2c2[nH]c3ccccc3c21 (stereo unspecified),,> 31.6,,> 100 µM,,> 100,,> 100,,42.7 µM,,47.8 µM,,41.8 µM,,> 40.1 µM,,30.6,,> 94.4
COc1ccc(-c2cc(-c3ccco3)c(C#N)c(=O)n2C2OC(COC(C)=O)C(OC(C)=O)C(OC(C)=O)C2OC(C)=O)cc1 (stereo unspecified),> 100 µM and 39 µM,> 100,35.8 µM and 8.76 µM,> 100 µM and 81 µM,,> 100,,> 100,> 100 µM and 18.1 µM,> 100 µM and 44.3 µM,> 100 µM and 23 µM,> 100 µM and 79.2 µM,,> 100 µM and 62.7 µM,,> 100 µM and 78.4 µM,,> 100,> 100 µM and 25.7 µM,> 100
CC(=O)OC1C(C)OC(Oc2c(-c3ccc(O)cc3)oc3cc(O)cc(O)c3c2=O)C(O)C1OC(C)=O (stereo unspecified),52.3 µM,> 100,32.5 µM,> 100 µM,29.4,> 83.8,23.4,70.4,20.6 µM,45.3 µM,35.9 µM,> 100 µM,13.2,54.3 µM,31.9,> 90.8 µM,27.5,> 93.9,29.9 µM,> 100
O=C1C2C3C=CC(C2C(=O)N1CN1CCOCC1)C1C2C(=O)N(CN4CCOCC4)C(=O)C2C31 (stereo unspecified),,> 60.1,,> 57.5 µM,,> 63.4,,> 71.9,,> 77.8 µM,,> 100 µM,,> 93.8 µM,,> 93.4 µM,,> 73.2,,98.9
C=CCC(NCc1ccccc1)c1cn(C(=O)OCC)c2ccccc12 (stereo unspecified),20.9 µM,55,> 100 µM,> 100 µM,28.4,> 100,13.1,35.8,17.3 µM,33.7 µM,24.6 µM,64.6 µM,13.8,40.7 µM,16.5,36.6 µM,43.1,> 100,21.7 µM,47.4
O=C1c2c[n+](Cc3ccccc3)ccc2-c2nc3ccccc3c3ccnc1c23,0.87 µM,6.18,0.0673 µM,0.499 µM,1.06,4.28,1.06,6.76,0.379 µM,1.87 µM,0.0569 µM,0.817 µM,0.548,1.9 µM,0.818,2.8 µM,0.804,3.71,0.585 µM,5.71
CC1=C(C(=O)Nc2cc(F)c(F)cc2F)C(c2ccc(N(C)C)cc2)C(C(=O)Nc2cc(F)c(F)cc2F)=C(C)N1,28.6 µM,> 100,,> 100 µM,,> 75.5,,> 68.6,,49.7 µM,,> 100 µM,,15.2 µM,,> 96 µM,,48.1,,> 77.2
COc1cccc2c1C(=O)c1c(O)c3c(c(O)c1C2=O)C[C@@](O)(C(=O)CO)C[C@@H]3OC1CC2C(OCN2CN2COC3C(C)OC(O[C@H]4C[C@](O)(C(=O)CO)Cc5c(O)c6c(c(O)c54)C(=O)c4c(OC)cccc4C6=O)CC32)C(C)O1 (stereo partly specified),0.0278 µM,> 1,0.000207 µM,0.0864 µM,0.0139,0.0609,0.0017,0.0108,0.0142 µM,0.0534 µM,0.00609 µM,0.103 µM,0.00606,> 0.293 µM,0.0205,0.0752 µM,0.00419,0.0149,0.0024 µM,0.0259
Cc1nc2sc(C(=O)Nc3cccc4c3OCCO4)c(N)c2cc1C(C)O (stereo unspecified),3.26 µM,> 100,3.58 µM,> 100 µM,3.85,> 100,4.16,> 100,3.6 µM,> 100 µM,5.35 µM,> 100 µM,5.52,> 100 µM,> 100,> 100 µM,1.81,> 100,5.04 µM,> 100
COc1cc(/C=C/C(=O)c2cccc(-n3cc(-c4ccccc4)[nH]c3=O)c2)ccc1O,2.9 µM,14.3,3.01 µM,8.68 µM,2.02,4.68,1.66,4.21,2.33 µM,6.06 µM,4.6 µM,15.3 µM,1.99,6.68 µM,9.52,31.2 µM,3.21,12.3,6.75 µM,21
COc1ccc(C)cc1-c1ccc(-c2cc(C)ccc2OC)o1,,> 100,,> 100 µM,,> 100,,> 100,,> 100 µM,,> 100 µM,,> 100 µM,,> 100 µM,,> 100,,> 100
N/N=C1\C(=O)N(c2ccc(Cl)c(Cl)c2)C(=O)C1C(=O)Nc1ccc(Cl)c(Cl)c1 (stereo unspecified),,> 100,,> 100 µM,,> 100,,> 100,,> 100 µM,,> 100 µM,,> 100 µM,,> 100 µM,,> 100,,> 100
CCN(CC)CCNc1ccc2nc(C)n3c4ccc(OC)cc4c(=O)c1c23,,10.3,,2.42 µM,,14.6,,5.34,,19.8 µM,,21.7 µM,,20.7 µM,,4.75 µM,,19,,7.82
CC(C)C[C@H](NC(=O)[C@@H](N)Cc1cccc2ccccc12)B(O)O,0.35 µM,,1.36 µM,,0.546,,,< 0.0272,0.187 µM,,0.831 µM,,0.0288,,0.439,,1.07,,0.313 µM,
CCn1cnc(C[C@H](NC(=O)[C@@H](NC(=O)Nc2cc(C(F)(F)F)cc(C(F)(F)F)c2)C(C)(C)C)C(=O)OC)c1,> 10 µM,> 10,> 10 µM,> 10 µM,> 10,> 10,> 10,> 10,> 10 µM,> 10 µM,> 10 µM,> 10 µM,> 10,> 10 µM,> 10,> 10 µM,> 10,> 10,> 10 µM,> 10
CCOC(=O)c1c(C)n(Cc2ccc(Cl)cc2Cl)c2c1cc(O)c1[nH]c(Cc3ccccc3)nc12,3.94 µM,18.5,2.71 µM,6.65 µM,2.05,4.62,1.92,3.9,2.97 µM,8.13 µM,4.61 µM,19.4 µM,1.77,4.16 µM,7.07,29 µM,5.89,30.8,5.92 µM,26.2
COc1ccc(/C(=N/O)c2cc(F)c(F)c(OC)c2F)cc1O,0.42 µM,> 100,0.402 µM,> 100 µM,0.396,> 100,0.43,23.7,0.345 µM,16.5 µM,0.502 µM,> 100 µM,18.9,> 100 µM,17.9,> 100 µM,0.309,> 100,0.392 µM,18.2
N#C/C(=C\c1ccccn1)c1nc2ccccc2o1,20.7 µM,55.8,31.7 µM,> 100 µM,26.8,> 100,18.5,52.4,29.7 µM,> 100 µM,> 100 µM,> 100 µM,0.0586,20.7 µM,50.3,> 100 µM,21.8,> 100,84.2 µM,> 100
